This experiment has as its system PniDAH7PS. The note with it: read-out: CM activity / KM, 50 mM BTP pH 7.4, 35 °C.

In the case of `C=C(O[C@@H]1C=C(C(=O)O)C=C[C@H]1O)C(=O)O` [chorismate], the Km was determined as 21 ± 2 µM.

The values are drawn from article PMC8408635 (The Journal of Biological Chemistry, 2021).
